Values of other authors in paper PMC5144109 (Analytical Chemistry, 2016).
Entries after “also recorded” stand apart in the source; their conditions may differ. Square brackets hold non-standard residues; d marks the D form. Ends that are not written are not given here.

What was measured:
aminopeptidase M (APM) = molecular target: T1, aminopeptidase M (APM) (Sus scrofa, UniProt P15145); details: positive and negative control of the digestion experiments
T1 sequence (P15145 1-963): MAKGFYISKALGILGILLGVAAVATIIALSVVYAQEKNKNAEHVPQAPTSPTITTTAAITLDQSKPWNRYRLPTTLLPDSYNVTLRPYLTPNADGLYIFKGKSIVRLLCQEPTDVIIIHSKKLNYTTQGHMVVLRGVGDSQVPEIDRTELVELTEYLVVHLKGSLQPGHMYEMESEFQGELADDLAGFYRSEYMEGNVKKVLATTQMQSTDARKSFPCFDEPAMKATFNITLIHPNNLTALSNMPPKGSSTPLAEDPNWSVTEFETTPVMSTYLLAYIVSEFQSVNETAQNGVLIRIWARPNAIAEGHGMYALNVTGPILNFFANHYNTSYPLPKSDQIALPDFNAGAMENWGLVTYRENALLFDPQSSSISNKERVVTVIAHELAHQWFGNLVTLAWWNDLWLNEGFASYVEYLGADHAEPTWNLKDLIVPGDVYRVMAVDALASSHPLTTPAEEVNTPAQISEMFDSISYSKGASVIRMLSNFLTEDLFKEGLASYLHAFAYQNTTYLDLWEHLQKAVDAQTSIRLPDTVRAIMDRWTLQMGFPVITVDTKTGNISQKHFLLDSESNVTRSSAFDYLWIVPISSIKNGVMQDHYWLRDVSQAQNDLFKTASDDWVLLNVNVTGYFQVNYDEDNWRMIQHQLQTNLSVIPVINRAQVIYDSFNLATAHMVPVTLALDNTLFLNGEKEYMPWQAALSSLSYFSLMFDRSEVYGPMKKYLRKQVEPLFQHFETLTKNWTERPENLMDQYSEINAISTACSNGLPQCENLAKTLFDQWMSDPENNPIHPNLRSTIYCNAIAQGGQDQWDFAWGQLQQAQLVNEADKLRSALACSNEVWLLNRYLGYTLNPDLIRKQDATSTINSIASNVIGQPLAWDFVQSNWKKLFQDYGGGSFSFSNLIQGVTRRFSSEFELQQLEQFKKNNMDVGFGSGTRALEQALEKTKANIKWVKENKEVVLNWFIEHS

opioid receptors = details: in mammals

Substance	digestion by APM (control peptides) (aminopeptidase M (APM))	potency compared with morphine (opioid receptors)
Asn-[dW]-Phe-NH2 [NdWFamide]	is not digested by APM; also recorded: known to resist degradation by APM	–
Human angiotensin I acetate salt hydrate	is digested by APM	–
dermorphin	–	higher potency than morphine
